Where two headings read alike, the source gives them in different places.
Columns and labels:
[1] = target: T1, HCV NS5B RdRp genotype 1b (Hepatitis C virus genotype 1b, UniProt Q9WMX2); test: Modified HCV NS5B RdRp enzyme assay (preincubation protocol); format: biochemical
T1 construct: The protein was expressed with an 18 amino acid C-terminal truncation to enhance the solubility; made in house; host or cells: E. coli BL21(DE3), pET21a vector
Description: HCV NS5B RdRp cloning, expression, and purification. The cDNA encoding the NS5B protein of HCV, genotype 1b, was cloned into the pET21a expression vector. The protein was expressed with an 18 amino acid C-terminal truncation to enhance the solubility. The E. coli competent cell line BL21(DE3) was used for expression of the protein. Cultures were grown at 37° C. for ˜4 hours until the cultures reached an optical density of 2.0 at 600 nm. The cultures were cooled to 20° C. and induced with 1 mM IPTG. Fresh ampicillin was added to a final concentration of 50 μg/ml and the cells were grown overnight at 20° C.
Cell pellets (3L) were lysed for purification to yield 15-24 mgs of purified NS5B. The lysis buffer consisted of 20 mM Tris-HCl, pH 7.4, 500 mM NaCl, 0.5% triton X-100, 1 mM DTT, 1 mM EDTA, 20% glycerol, 0.5 mg/ml lysozyme, 10 mM MgCl2, 15 ug/ml deoxyribonuclease I, and Complete TM protease inhibitor tablets (Roche). After addition of the lysis buffer, frozen cell pellets were resuspended using a tissue homogenizer. To reduce the viscosity of the sample, aliquots of the lysate were sonicated on ice using a microtip attached to a Branson sonicator. The sonicated lysate was centrifuged at 100,000×g for 1 hr at 4° C. and filtered through a 0.2 μm filter unit (Corning).
The protein was purified using three sequential chromatography steps: Heparin sepharose CL-6B, polyU sepharose 4B, and Hitrap SP sepharose (Pharmacia). The chromatography buffers were identical to the lysis buffer but contained no lysozyme, deoxyribonuclease I, MgCl2 or protease inhibitor and the NaCl concentration of the buffer was adjusted according to the requirements for charging the protein onto the column. Each column was eluted with a NaCl gradient which varied in length from 5-50 column volumes depending on the column type. After the final chromatography step, the resulting purity of the enzyme is >90% based on SDS-PAGE analysis. The enzyme was aliquoted and stored at −80° C.
Standard HCV NS5B RdRp enzyme assay. HCV RdRp genotype 1b assays were run in a final volume of 60 μl in 96 well plates (Costar 3912). The assay buffer is composed of 20 mM Hepes, pH 7.5, 2.5 mM KCl, 2.5 mM MgCl2, 1 mM DTT, 1.6 U RNAse inhibitor (Promega N2515), 0.1 mg/ml BSA (Promega R3961), and 2% glycerol. All compounds were serially diluted (3-fold) in DMSO and diluted further in water such that the final concentration of DMSO in the assay was 2%. HCV RdRp genotype 1b enzyme was used at a final concentration of 28 nM. A polyA template was used at 6 nM, and a biotinylated oligo-dT12 primer was used at 180 nM final concentration. Template was obtained commercially (Amersham 27-4110). Biotinylated primer was prepared by Sigma Genosys. 3H-UTP was used at 0.6 μCi (0.29 μM total UTP). Reactions were initiated by the addition of enzyme, incubated at 30° C. for 60 min, and stopped by adding 25 μl of 50 mM EDTA containing SPA beads (4 μg/μl, Amersham RPNQ 0007). Plates were read on a Packard Top Count NXT after >1 hr incubation at room temperature.
Modified HCV NS5B RdRp enzyme assay. A modified enzyme assay was performed essentially as described for the standard enzyme assay except for the following: The biotinylated oligo dT12 primer was precaptured on streptavidin-coated SPA beads by mixing primer and beads in assay buffer and incubating at room temperature for one hour. Unbound primer was removed after centrifugation. The primer-bound beads were resuspended in 20 mM Hepes buffer, pH 7.5 and used in the assay at final concentrations of 20 nM primer and 0.67 μg/μl beads. Order of addition in the assay: enzyme (14 nM) was added to diluted compound followed by the addition of a mixture of template (0.2 nM), 3H-UTP (0.6 μCi, 0.29 μM), and primer-bound beads, to initiate the reaction; concentrations given are final. Reactions were allowed to proceed for 4 hours at 30° C.
IC50 values for compounds were determined using seven different [I]. […]

HCV replicon cells = test: HCV replicon FRET assay; format: cell-based; conditions: Hepatitis C virus
Excerpt: FRET Assay Preparation. To perform the HCV FRET screening assay, 96-well cell culture plates were used. The FRET peptide (Anaspec, Inc.) (Taliani et al., Anal. Biochem. 1996, 240, 60-67) contains a fluorescence donor, EDANS, near one end of the peptide and an acceptor, DABCYL, near the other end. The fluorescence of the peptide is quenched by […] resonance energy transfer (RET) between the donor and the acceptor, but as the NS3 protease cleaves the peptide the products are released from RET quenching and the fluorescence of the donor becomes apparent. The assay reagent was made as follows: 5× cell Luciferase cell culture lysis reagent from Promega (#E153A) diluted to 1× with dH2O, NaCl added to 150 mM final, the FRET peptide diluted to 20 μM final from a 2 mM stock.
To prepare plates, HCV replicon cells, with or without a Renilla luciferase reporter gene, were trypsinized and placed into each well of a 96-well plate with titrated test compounds added in columns 3 through 12; columns 1 and 2 contained a control compound (HCV protease inhibitor), and the bottom row contained cells without compound. The plates were then placed in a CO2 incubator at 37° C.
Assays. Subsequent to addition of the test compounds described above (FRET Assay Preparation), at various times the plate was removed and Alamar blue solution (Trek Diagnostics, #00-100) was added per well as a measure of cellular toxicity. After reading in a Cytoflour 4000 instrument (PE Biosystems), plates were rinsed with PBS and then used for FRET assay by the addition of 30 ul of the FRET peptide assay reagent described above (FRET Assay Preparation) per well. The plate was then placed into the Cytoflour 4000 instrument which had been set to 340 excite/490 emission, automatic mode for 20 cycles and the plate read in a kinetic mode. Typically, the signal to noise using an endpoint analysis after the reads was at least three-fold. Alternatively, after Alamar blue reading, plates were rinsed with PBS, 50 ul of DMEM (high glucose) without phenol red was added and plates were then used for luciferase assay using the Promega Dual-Glo Luciferase Assay System.
Compound analysis was determined by quantification of the relative HCV replicon inhibition and the relative cytotoxicity values. To calculate cytoxicity values, the average Alamar Blue fluorescence signals from the control wells were set as 100% non-toxic. The individual signals in each of the compound test wells were then divided by the average control signal and multiplied by 100% to determine […]. To calculate the HCV replicon inhibition values, an average background value was obtained from the two wells containing the highest amount of HCV protease inhibitor at the end of the assay period. These numbers were similar to those obtained from naive Huh-7 cells.
The background numbers were then subtracted from the average signal obtained from the control wells and this number was used as 100% activity. The individual signals in each of the compound test wells were then divided by the averaged control values after background subtraction and multiplied by 100% to determine percent activity. EC50 values for a protease inhibitor titration were calculated as the concentration which caused a 50% reduction in FRET or luciferase activity. The two numbers generated for the compound plate, percent cytoxicity and percent activity were used to determine compounds of interest for further analysis.

[2] = HCV NS5B RdRp genotype 1b, preincubation protocol, read-out: IC50
[3] = HCV replicon cells, FRET assay, read-out: EC50

T1 sequence (Q9WMX2 2420-2992): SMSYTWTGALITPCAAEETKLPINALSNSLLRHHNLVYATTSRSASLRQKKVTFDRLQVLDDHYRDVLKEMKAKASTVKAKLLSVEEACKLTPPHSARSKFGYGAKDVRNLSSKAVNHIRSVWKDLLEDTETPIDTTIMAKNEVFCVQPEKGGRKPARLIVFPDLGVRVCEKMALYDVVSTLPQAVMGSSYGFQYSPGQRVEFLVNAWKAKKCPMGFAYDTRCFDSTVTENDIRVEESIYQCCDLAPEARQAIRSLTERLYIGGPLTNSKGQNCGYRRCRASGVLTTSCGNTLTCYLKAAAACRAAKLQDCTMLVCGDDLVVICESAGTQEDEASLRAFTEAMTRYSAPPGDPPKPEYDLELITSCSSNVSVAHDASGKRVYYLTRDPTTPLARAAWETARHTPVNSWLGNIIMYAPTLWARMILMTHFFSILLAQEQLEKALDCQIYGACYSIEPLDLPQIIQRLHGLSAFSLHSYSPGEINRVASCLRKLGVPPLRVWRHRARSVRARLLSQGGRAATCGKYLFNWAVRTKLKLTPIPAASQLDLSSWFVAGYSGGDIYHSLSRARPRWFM

For `CNS(=O)(=O)NC(=O)c1ccc2c(C3CCCCC3)c3n(c2n1)CC(C(=O)N1C[C@@H](C)O[C@@H](C)C1)=Cc1cc(OC)ccc1-3`, the IC50 [1, 2] was 1 to 500 nM and the EC50 (HCV replicon cells; [3]) was 500 to 10000 nM.
Compound `COc1ccc2c(c1)C=C(C(=O)N1C[C@@H](C)O[C@@H](C)C1)Cn1c-2c(C2CCCCC2)c2ccc(C(=O)NS(=O)(=O)N(C)C)nc21` has an IC50 [1, 2] of 1 to 500 nM and an EC50 (HCV replicon cells; [3]) greater than 500 nM.
With `COc1ccc2c(c1)C=C(C(=O)N1C[C@@H](C)N(C)[C@@H](C)C1)Cn1c-2c(C2CCCCC2)c2ccc(C(=O)NS(=O)(=O)N(C)C)nc21` the IC50 [1, 2] was 1 to 500 nM and the EC50 (HCV replicon cells; [3]) was 1 to 500 nM.
Work on `COC(=O)C1=Cc2cc(OC)ccc2-c2c(C3CCCCC3)c3ccc(C(=O)NS(=O)(=O)N(C)C)nc3n2C1` yielded an IC50 [1, 2] of 1 to 500 nM and an EC50 (HCV replicon cells; [3]) of 500 to 10000 nM.
`COc1ccc2c(c1)[C@@H]1C[C@]1(C(=O)N1[C@@H]3CC[C@H]1CN(C)C3)Cn1c-2c(C2CCCCC2)c2ccc(C(=O)NS(=O)(=O)N(C)C)nc21` was tested, and the IC50 [1] was 1 to 500 nM and the EC50 (HCV replicon cells) was greater than 100 nM.
With `COc1ccc2c(c1)[C@@H]1C[C@]1(C(=O)N1[C@@H]3CC[C@H]1CN(C)C3)Cn1c-2c(C2CCCCC2)c2ccc(C(=O)N(C)S(=O)(=O)N(C)C)nc21` the IC50 [1] was 500 to 10000 nM and the EC50 (HCV replicon cells) was greater than 100 nM.
For `COc1ccc2c(c1)C=C(C(=O)N1C[C@@H](C)O[C@@H](C)C1)Cn1c-2c(C2CCCCC2)c2cccnc21`, the IC50 [1, 2] was 500 to 10000 nM and the EC50 (HCV replicon cells; [3]) was greater than 370 nM.

Reference: patent US7517872B2, “Compounds for the treatment of hepatitis C” (Bristol-Myers Squibb Company, priority 2007, dated 2009)
